Measured values: ChEMBL document CHEMBL5724558, “Image-based profiling of drug vulnerabilities in CRC organoids” (2024)
“And” between values parts separate entries of the source, which are not always exact repeats. Equal entries are not always repeated. Square brackets hold non-standard residues; d marks the D form. Peptide text beside a SMILES is read from it. Arg(Me) = CNC(=N)NCCC[C@H](N)C(=O)O; d3Pal = N[C@H](Cc1cccnc1)C(=O)O; azaGly = NNC(=O)O

Columns and labels:
Type in all cases: functional, Homo sapiens
Parameters in all cases: dose or concentration left out as unconfirmed
[1] = system: Colon cancer organoid; experiment: (§1) Image-based profiling of donated chemical probes and chemogenomic kinase set in O06 CRC organoid. Image analysis is performed on the sum area metric, and the data were normalized to the DMSO control. After imaging the organoid viability is measured using the OneGloEX Luciferase Assay System. The normalized viability data and sum area are reported.
[2] = system: Colon cancer organoid; experiment: as §1, with “O09” for “O06”
[3] = system: Colon cancer organoid; experiment: as §1, with “O21” for “O06”

Compound | Cell Viability ([1]; Replication number 1) | Cell Viability ([1]; Replication number 2) | Cell Viability ([2]; Replication number 1) | Cell Viability ([2]; Replication number 2) | Cell Viability ([3]; Replication number 1) | Cell Viability ([3]; Replication number 2)
Cc1ncsc1-c1ccc(CNC(=O)[C@@H]2C[C@@H](O)CN2C(=O)[C@@H](NC(=O)CCCCNC(=O)c2ccc(-c3ccc(N4CCN(C)CC4)c(NC(=O)c4c[nH]c(=O)cc4C(F)(F)F)c3)cc2)C(C)(C)C)cc1 | 127.591% and 97.9274% | 138.236% and 103.65% | 189.737% and 102.727% | 128.896% and 122.558% | 88.0354% and 100.906% | 93.0619% and 103.634%
CNC(=N)NCCC[C@H](NC(=O)[C@H](CC(C)C)NC(=O)NNC(=O)[C@H](Cc1ccccc1)NC(=O)[C@H](CO)NC(=O)[C@H](CC(N)=O)NC(=O)[C@@H](Cc1cccnc1)NC(=O)[C@H](N)Cc1ccc(O)cc1)C(=O)NCC(N)=O [KISS1-543] (H-[dY][d3Pal]NSF[azaGly]L[Arg(Me)]G-NH2) | 118.716% and 117.33% | 90.7753% and 88.3624% | 107.101% and 81.2318% | 83.0393% and 106.024% | 119.966% and 118.758% | 94.392% and 98.4694%
Cl.Cl.Cl.c1ccc(N2CCN(Cc3nc4ccccc4[nH]3)CC2)nc1 | 75.342% and 94.3794% | 106.955% and 116.079% | 118.127% and 116.353% | 87.0048% and 88.7915% | 123.058% and 103.622% | 81.1139% and 93.8775%
CN1CCN(c2ccnc(NCCc3ccccc3)n2)CC1 [TP-040n] | 105.696% and 108.533% | 89.6424% and 87.2137% | 119.963% and 93.2958% | 137.241% and 93.2958% | 124.161% and 101.443% | 125.774% and 83.8743%
CC1=C(C)C(=O)C(C(C)(C)CC(=O)N(CCCCSC[C@H]2O[C@@H](n3cnc4c(N)ncnc43)[C@H](O)[C@@H]2O)Cc2cccc(-c3ccc(Cl)cc3)c2)=C(C)C1=O | 167.397% and 142.309% | 129.695% and 107.541% | 154.166% and 104.56% | 134.087% and 102.344% | 85.391% and 116.982% | 82.6503% and 80.5489%
CC(C)(C#Cc1ccc(NC(=O)COc2ccccc2C(=O)c2ccccc2)c(Cl)c1)C(=O)O [BI 2439] | 94.1417% and 101.057% | 69.7928% and 91.0899% | 115.901% and 103.937% | 114.023% and 92.0585% | 94.7659% and 113.344% | 112.811% and 119.578%
O=C(NNS(=O)(=O)c1ccccc1F)c1cc(F)cc(-c2ccccn2)c1 [WM-1119] | 59.5797% and 94.7368% | 61.7919% and 84.5747% | 133.421% and 96.9739% | 39.4001% and 91.3957% | 82.8466% and 99.3088% | 81.4128% and 90.2447%
COc1cc(-c2cn(C)c(=O)c3cnccc23)c(OC)cc1CN(C)C | 102.497% and 103.651% | 129.558% and 87.7058% | 64.3431% and 76.9706% | 65.7343% and 74.6912% | 113.788% and 114.043% | 122.408% and 119.749%
CC1=C(C(=O)Nc2cc3cn[nH]c3cc2F)C(c2ccc(C(F)(F)F)cc2)CC(=O)N1 (stereo unspecified) | 108.292% and 112.394% | 105.064% and 92.1337% | 137.27% and 97.7404% | 200.569% and 118.509% | 120.369% and 99.2335% | 116.368% and 107.089%
Cn1cc(CCn2cnc(-c3cnn(C)c3)c2-c2ccc(C#N)cc2)cn1 | 175.784% and 127.57% | 222.733% and 136.219% | 104.672% and 93.4312% | 96.0156% and 86.9496% | 99.776% and 95.2319% | 89.4066% and 104.177%
CC(=O)Nc1c(C(C)=O)c(=O)n(C)c2nc(-c3ccc(Cl)cc3Cl)c(-c3ccc(Cl)cc3)cc12 [NAPHTHYRIDINONE] | 123.545% and 117.564% | 103.77% and 94.7587% | 117.091% and 130.21% | 64.3844% and 79.7371% | 94.8536% and 101.294% | 91.9114% and 85.7143%
O[C@H]1CC[C@H](Nc2ncc3nc(Nc4c(F)cc(F)cc4F)n([C@H]4CCOC4)c3n2)CC1 [TANZISERTIB] | 85.5595% and 88.3572% | 111.493% and 110.437% | 161.464% and 97.9897% | 183.086% and 108.79% | 99.1681% and 86.9686% | 119.868% and 95.5739%
CCN(Cc1ccc(Cl)cc1)c1ncc(C(=O)NCCCN2CCCC2=O)c(NC2CCCC2)n1 | 89.2777% and 109.917% | 114.236% and 99.6728% | 161.079% and 96.7604% | 165.307% and 110.619% | 106.065% and 92.3751% | 124.526% and 113.344%
CC(C)(C)OC(=O)N1CCCC1CNC1CCC(c2cc(F)ccc2F)(S(=O)(=O)c2ccc(Cl)cc2)CC1 (stereo unspecified) [GSI-NC] | 66.8797% and 82.4356% | 76.3317% and 68.2262% | 125.581% and 90.7884% | 108.329% and 85.8708% | 89.6265% and 62.8719% | 87.5663% and 80.102%
O=C(NCc1ccccc1)c1ccc(S(=O)(=O)NCc2ccccc2)cc1 | 187.548% and 135.666% | 115.38% and 119.884% | 92.4038% and 93.7908% | 103.22% and 86.1192% | 112.801% and 110.51% | 91.6281% and 94.6419%
Cc1c(Oc2ccc(F)cc2)c(OC(C)C)nn1-c1ccc(C2CC2)cn1 [IPP/CNRS-A019] | 86.662% and 99.3522% | 111.4% and 120.615% | 105.275% and 104.102% | 106.079% and 88.8184% | 82.2152% and 84.0306% | 88.4065% and 90.7546%
COc1cc2c(cc1OCCCN1CCCC1)N=C(N)C21CCC1 | 110.816% and 131.678% | 106.27% and 117.339% | 70.9946% and 111.515% | 77.9538% and 123.155% | 92.2277% and 112.28% | 68.723% and 97.1957%
O=C(NCc1ncc(C(F)(F)F)cc1Cl)c1ccc2c(c1)C1(CCS(=O)(=O)CC1)[C@@H](C1CC1)N2S(=O)(=O)c1ccc(F)cc1 [BAY-786] | 93.4369% and 85.4801% | 92.4233% and 87.6518% | 144.169% and 104.407% | 144.169% and 145.747% | 89.1117% and 93.1436% | 89.1705% and 87.7551%
Cc1nc(NC(=O)N2CCC[C@H]2C(N)=O)sc1-c1ccnc(C(C)(C)C(F)(F)F)c1 [ALPELISIB] | 55.6533% and 63.4302% | 57.1927% and 78.1491% | 78.5129% and 75.0506% | 83.7581% and 44.8119% | 82.706% and 92.5436% | 73.0527% and 85.7863%
N#CC1(c2ccccn2)CCN(Cc2cc(C(=O)N3CCCC3)c(=O)n3ccccc23)CC1 [MSD-M1PAM-NC] | 114.688% and 98.8664% | 108.691% and 97.5493% | 69.2847% and 91.5343% | 101.66% and 96.3521% | 100.616% and 90.5784% | 99.0735% and 86.6757%
N#CN1CC[C@H](C(=O)Nc2nc3c(s2)CN(C(=O)CN=[N+]=[N-])CC3)C1 [8RK64] | 79.1245% and 96.1943% | 91.4374% and 108.602% | 73.5983% and 85.3445% | 74.3628% and 83.6638% | 96.0935% and 89.4871% | 85.4285% and 89.7349%
COc1cc(Nc2nccc(-c3cnn4nc(OC)ccc34)n2)cc(C(F)(F)F)c1 | 24.0396% and 55.0969% | 25.0029% and 51.7745% | 18.7716% and 22.0247% | 18.9351% and 21.2081% | 43.8285% and 81.0407% | 69.763% and 98.0422%
Cc1cc(CN)cc(C)c1-c1ncn(C)c1-c1cncn1C | 108.725% and 89.8792% | 171.9% and 107.541% | 189.71% and 98.9954% | 198.722% and 106.905% | 118.759% and 94.0562% | 98.6287% and 80.0119%
CC(=O)c1cc(-c2ccccc2OCC2CC2)c2ncccn12 | 193.281% and 129.503% | 159.696% and 98.6989% | 135.678% and 108.037% | 170.672% and 99.2081% | 119.426% and 104.637% | 103.612% and 93.9737%
CSc1cccnc1N1CCN(Cc2nc3ccccc3[nH]2)CC1 [A-769] | 94.9192% and 98.1265% | 78.7963% and 95.9431% | 134.459% and 96.2835% | 149.547% and 115.371% | 84.3952% and 76.2613% | 99.9235% and 83.6735%
CN(C)C(=O)Cn1cc(-c2nc(C3(c4ccc(-c5cnc(N)nc5)cc4)CC3)no2)cn1 [BI 0153] | 106.576% and 110.07% | 80.0994% and 77.4652% | 152.465% and 95.0889% | 176.713% and 106.608% | 115.747% and 91.3972% | 95.3195% and 84.6939%
